Reference: publication PMC4604124, “In Vitro Characterization of the Pharmacological Properties of the Anti-Cancer Chelator, Bp4eT, and Its Phase I Metabolites” (PLoS ONE, 2015)
Where “and” joins values, the source holds several entries; their conditions need not be identical. Equal values may be shown once. Read-outs that look alike come from different tables or passages of the source.

Columns and labels:
[1] = MTT cytotoxicity assay, 3T3 cells; type: cell-based, mouse; conditions: mouse, 3T3 mouse embryo fibroblasts, 3T3, 10 000 b/j; for viability at 72 h, 1 μM: koncentrace 1 μM; for viability at 72 h, 3 μM: koncentrace 3 μM; for viability at 72 h, 10 μM: koncentrace 10 μM; for viability at 72 h, 30 μM: koncentrace 30 μM; for viability at 72 h, 100 μM: koncentrace 100 μM; for viability at 72 h, 300 μM: koncentrace 300 μM; for viability at 72 h, 1000 μM: koncentrace 1000 μM
Description: (§1) For cytotoxicity experiments, cancer cells were seeded at a density of 5,000 (MCF-7), 10,000 (HL-60) or 2,000 cells/well (HCT116 and A549) in 96-well plates (TPP) for 24 h/37°C prior to the addition of examined agents. The non-cancerous cells, 3T3 and H9c2 cells, were cultured for 24 h/37°C in 96-well plates at a density of 10,000 cells/well, the medium was then changed to serum- and pyruvate-free DMEM (Sigma-Aldrich) and incubated with the cells for another 24 h/37°C. The cytotoxic effects of Bp4eT and its metabolites were studied at different concentrations after a 72 h/37°C incubation. In order to aid the dissolution of the lipophilic ligands, 0.1% dimethyl sulfoxide (v/v) (DMSO; Sigma-Aldrich) was present in the culture medium of all groups. At this concentration, DMSO had no effect on cellular proliferation or viability.
(§2) The viability of cells were determined using an MTT assay (Sigma-Aldrich) according to previously established methods. The optical density of soluble MTT was measured at λ = 570 nm, subtracting the λ = 690 nm background using a Tecan Infinite 200M plate reader (Tecan Group, Männedorf, Switzerland). The viability or proliferation of experimental groups was expressed as a percentage of the untreated controls (100%).
(§3) SigmaStat for Windows 3.5 (Systat Software, San Jose, CA, USA) statistical software package was utilized to analyze results. The data are expressed as the mean ± SD of a given number of experiments. Statistical significance was determined using a one-way ANOVA with a Bonferroni post-hoc test or Student’s t-test. The results were considered to be statistically significant when p < 0.05. The IC50 values were calculated using CalcuSyn 2.0 software (Biosoft, Cambridge, UK). Cell cycle analysis was evaluated using MultiCycle AV Software (Phoenix Flow Systems, San Diego, CA, USA).

[2] = test system: 3T3 mouse embryo fibroblasts; assay: MTT cytotoxicity assay, 3T3 cells; type: cell-based; conditions: for MTT viability (0 = 100): 3T3, 10 000 b/j, individual experiments
Description: as §1, §2, §3

[3] = test system: HCT116 human colorectal carcinoma cells; assay: MTT cytotoxicity assay, HCT116 cells; type: cell-based; conditions: for IC50: MTT
Description: as §1, §2, §3

[4] = test system: A549 human lung adenocarcinoma cells; assay: MTT cytotoxicity assay, A549 cells; type: cell-based; conditions: for IC50: MTT
Description: as §1, §2, §3

[5] = test system: labile iron pool of MCF-7 cells; assay: Calcein-AM assay, access to the labile iron pool; type: cell-based, human; parameters: Calcein fluorescence: unit not given here; conditions: 10 μM
Description: These experiments were performed according to Glickstein et al. with slight modifications. The MCF-7 cells were seeded in 96-well plates (10,000 cells/well) and allowed to adhere for 24 h/37°C. Cells were loaded with iron using the cellular iron donor, ferric ammonium citrate (530 μg/mL), 24 h prior to the experiment, and then washed. To prevent potential interference, especially with regard to various trace elements, the medium was replaced with ADS buffer (prepared using Millipore water supplemented with 116 mM NaCl, 5.3 mM KCl, 1 mM CaCl2, 1.2 mM MgSO4, 1.13 mM NaH2PO4, 5 mM D-glucose, and 20 mM HEPES, pH 7.4). Cells were then loaded with 2 μM of the cell-permeable calcein green acetoxymethyl ester (calcein-AM; Molecular Probes, Oregon, USA) for 30 min/37°C and washed. Cellular esterases cleave the acetoxymethyl groups to form the cell membrane-impermeable compound, calcein green. The fluorescence of calcein green is quenched upon binding iron. The intracellular fluorescence (λex = 488 nm; λem = 530 nm) of calcein green was then followed as a function of time (10 min after the addition of 10 μM Bp4eT or its metabolites) at 37°C using the Tecan Infinite 200M plate reader. The iron chelation efficacy of the metabolites in cells was expressed as a percentage of the efficacy of the parent chelator, Bp4eT (100%).

[6] = individual experiments, read-out: MTT viability (0 = 100)
[7] = mean, read-out: MTT viability (0 = 100), průměr

CCNC(=O)NN=C(c1ccccc1)c1ccccn1 [E-Bp4eS, 2-benzoylpyridine 4-ethylsemicarbazone]
viability at 72 h, 1 μM [1, 6]: 91%
viability at 72 h, 1 μM [1, 7]: 98%
viability at 72 h, 3 μM [1, 6]: 96.2%
viability at 72 h, 3 μM [1, 7]: 94.8%
viability at 72 h, 10 μM [1, 6]: 91.6%
viability at 72 h, 10 μM [1, 7]: 92.9%
viability at 72 h, 30 μM [1, 6]: 86.3%
viability at 72 h, 30 μM [1, 7]: 90.2%
viability at 72 h, 100 μM [1, 6]: 87.1%
viability at 72 h, 100 μM [1, 7]: 83.9%
viability at 72 h, 300 μM [1, 6]: 85.3%
viability at 72 h, 300 μM [1, 7]: 81.5%
viability at 72 h, 1000 μM [1, 6]: 74.1%
viability at 72 h, 1000 μM [1, 7]: 66.7%
MTT viability (0 = 100) ([2]; koncentrace 1 μM): 96.8721 and 104.341 and 100.156 and 97.6643
MTT viability (0 = 100) ([2]; koncentrace 3 μM): 91.697 and 99.6923 and 92.7572 and 93.5961
MTT viability (0 = 100) ([2]; koncentrace 10 μM): 87.504 and 95.4305 and 94.9836 and 95.1509
MTT viability (0 = 100) ([2]; koncentrace 30 μM): 95.2772 and 94.6873 and 87.6265 and 86.7904
MTT viability (0 = 100) ([2]; koncentrace 100 μM): 89.4336 and 75.046 and 83.8477
MTT viability (0 = 100) ([2]; koncentrace 300 μM): 87.9502 and 69.8243 and 82.8158
MTT viability (0 = 100) ([2]; koncentrace 1000 μM): 61.3011 and 59.7855 and 71.6828
IC50 ([2]; Mus musculus, Fibroblast, 72 h, 3T3, 72 h/37°C, MTT, mean ± SD, n ≥ 4, read-out: IC50): > 1000 µM
Therapeutic index, IC50 non-cancerous cells / IC50 neoplastic cells ([3]; 3T3/HCT116): >10.5
Therapeutic index, IC50 non-cancerous cells / IC50 neoplastic cells ([3]; H9c2/HCT116): 9.3
IC50 ([3]; HCT116, 72 h/37°C, mean ± SD, n ≥ 4): 95.4 ± 10.4 µM
MTT, relative to control (0 = 100) ([3]; HCT116, 2 000 b/j, 1 μM, průměr (mean), sheet E-Bp4eS): 93.86
MTT, relative to control (0 = 100) ([3]; HCT116, 2 000 b/j, 1 μM, single experiment (date), sheet E-Bp4eS): 90.5387 and 95.2075 and 90.3432 and 99.3608
MTT, relative to control (0 = 100) ([3]; HCT116, 2 000 b/j, 3 μM, průměr (mean), sheet E-Bp4eS): 91.05
MTT, relative to control (0 = 100) ([3]; HCT116, 2 000 b/j, 3 μM, single experiment (date), sheet E-Bp4eS): 88.1499 and 86.4536 and 88.7606 and 100.823
MTT, relative to control (0 = 100) ([3]; HCT116, 2 000 b/j, 10 μM, průměr (mean), sheet E-Bp4eS): 89.35
MTT, relative to control (0 = 100) ([3]; HCT116, 2 000 b/j, 10 μM, single experiment (date), sheet E-Bp4eS): 79.5919 and 93.1715 and 88.2723 and 96.3507
MTT, relative to control (0 = 100) ([3]; HCT116, 2 000 b/j, 30 μM, průměr (mean), sheet E-Bp4eS): 86.47
MTT, relative to control (0 = 100) ([3]; HCT116, 2 000 b/j, 30 μM, single experiment (date), sheet E-Bp4eS): 82.3738 and 90.947 and 82.3476 and 90.2168
MTT, relative to control (0 = 100) ([3]; HCT116, 2 000 b/j, 100 μM, průměr (mean), sheet E-Bp4eS): 59.19
MTT, relative to control (0 = 100) ([3]; HCT116, 2 000 b/j, 100 μM, single experiment (date), sheet E-Bp4eS): 61.842 and 75.8026 and 45.1438 and 53.9757
MTT, relative to control (0 = 100) ([3]; HCT116, 2 000 b/j, 300 μM, průměr (mean), sheet E-Bp4eS): 9.27
MTT, relative to control (0 = 100) ([3]; HCT116, 2 000 b/j, 1000 μM, průměr (mean), sheet E-Bp4eS): 7.18
MTT, relative to control (0 = 100) ([3]; HCT116, 2 000 b/j, 1000 μM, single experiment (date), sheet E-Bp4eS): 7.957 and 7.9705 and 6.656 and 6.131
IC50 ([3]; HCT116, 2 000 b/j, single experiment (date), sheet E-Bp4eS): 108 µM and 85.2 µM and 99.1 µM
IC50 ([3]; Homo sapiens, HCT-116, HCT116, 2 000 b/j, průměr (mean), sheet E-Bp4eS): 95.4 µM
IC50 ([3]; Homo sapiens, HCT-116, HCT116, 2 000 b/j, single experiment (date), sheet E-Bp4eS): 89.2 µM
Therapeutic index, IC50 non-cancerous cells / IC50 neoplastic cells ([4]; 3T3/A549): >4.0
IC50 ([4]; A549, 72 h/37°C, mean ± SD, n ≥ 4): 248 ± 28.4 µM
MTT, relative to control (0 = 100) ([4]; A549, 2 000 b/j, 1 μM, průměr (mean), sheet E-Bp4eS): 93.23
MTT, relative to control (0 = 100) ([4]; A549, 2 000 b/j, 1 μM, single experiment (date), sheet E-Bp4eS): 97.4794 and 93.8067 and 89.4519 and 90.2593 and 95.1529
MTT, relative to control (0 = 100) ([4]; A549, 2 000 b/j, 3 μM, průměr (mean), sheet E-Bp4eS): 94.11
MTT, relative to control (0 = 100) ([4]; A549, 2 000 b/j, 3 μM, single experiment (date), sheet E-Bp4eS): 94.6678 and 89.857 and 93.9888 and 97.9391
MTT, relative to control (0 = 100) ([4]; A549, 2 000 b/j, 10 μM, průměr (mean), sheet E-Bp4eS): 92.21
MTT, relative to control (0 = 100) ([4]; A549, 2 000 b/j, 10 μM, single experiment (date), sheet E-Bp4eS): 87.4036 and 92.1017 and 93.2476 and 93.9742 and 94.3384
MTT, relative to control (0 = 100) ([4]; A549, 2 000 b/j, 30 μM, průměr (mean), sheet E-Bp4eS): 90.64
MTT, relative to control (0 = 100) ([4]; A549, 2 000 b/j, 30 μM, single experiment (date), sheet E-Bp4eS): 90.1965 and 95.4707 and 85.9691 and 88.5685 and 92.9924
MTT, relative to control (0 = 100) ([4]; A549, 2 000 b/j, 100 μM, průměr (mean), sheet E-Bp4eS): 73.00
MTT, relative to control (0 = 100) ([4]; A549, 2 000 b/j, 100 μM, single experiment (date), sheet E-Bp4eS): 74.3256 and 77.7533 and 70.4536 and 74.7606 and 67.6889
MTT, relative to control (0 = 100) ([4]; A549, 2 000 b/j, 300 μM, průměr (mean), sheet E-Bp4eS): 38.58
MTT, relative to control (0 = 100) ([4]; A549, 2 000 b/j, 300 μM, single experiment (date), sheet E-Bp4eS): 29.8381 and 26.5697 and 49.6192 and 42.8896 and 44.0078
MTT, relative to control (0 = 100) ([4]; A549, 2 000 b/j, 1000 μM, průměr (mean), sheet E-Bp4eS): 20.68
MTT, relative to control (0 = 100) ([4]; A549, 2 000 b/j, 1000 μM, single experiment (date), sheet E-Bp4eS): 19.2379 and 16.653 and 18.6303 and 21.7843 and 27.0728
IC50 ([4]; A549, 2 000 b/j, single experiment (date), sheet E-Bp4eS): 234 µM and 239 µM and 259 µM and 291 µM
Therapeutic index, IC50 non-cancerous cells / IC50 neoplastic cells ([4]; H9c2/A549): 3.6
IC50 ([4]; Homo sapiens, A549, A549, 2 000 b/j, single experiment (date), sheet E-Bp4eS): 217 µM
Calcein fluorescence ([5]; 30 sec, mean (průměr)): 0.000
Calcein fluorescence ([5]; 30 sec, single experiments): 0.000
Calcein fluorescence ([5]; 60 sec, mean (průměr)): 3.596
Calcein fluorescence ([5]; 90 sec, mean (průměr)): 0.696
Calcein fluorescence ([5]; 120 sec, mean (průměr)): 1.617
Calcein fluorescence ([5]; 300 sec, mean (průměr)): 0.000
Calcein fluorescence ([5]; 300 sec, single experiments): 0.000
Calcein fluorescence ([5]; 600 sec, mean (průměr)): 0.000
Calcein fluorescence ([5]; 600 sec, single experiments): 0.000
Chelation efficacy: fluorescence of free calcein at t = 600 s as percentage of Bp4eT ([5]; MCF-7, mean of 6 experiments): 0.0001667%
Fluorescence of free calcein at 600 s as percentage of Bp4eT ([5]; MCF-7, single experiments): 0%
